In US20030113665A1, “Optical data medium containing, in the information layer, a dye as a light-absorbing compound” (priority 2001, published 2003):
Where two headings read alike, the source gives them in different places.

What was measured:
[1] = Recording/readout test of optical disc with vapour-deposited phthalocyanine information layer
From the text: Directly on top of the grooved surface the information layer of 40 nm was coated by vacuum vapor deposition method. […] Total thickness of the adhesive layer and the cover layer was set as 100 μm.
The parameters of readout/recording setup was as follows.
Numerical aperture of the objective lens=0.85, two element lens
Readout laser power=0.30 mW
Writing laser power=6.0 mW
Pulse strategy=7 pulses with 50% duty inside one mark
The dye dichloro-silicon-phthalocyanine (SiCl2Pc) was applied for the information layer.

[2] = UV absorption spectra in solution; format: physicochemical; details: for UV (DMF): λmax: in DMF; for UV (dioxane): λmax: in dioxane; for λmax: in dioxane (Tables 1-3); for λ1/2-λ1/10: on the shortwave slope (Tables 1-3)
From the text: For a, preferably singly recordable, optical data carrier according to the invention which is written and read by light from a blue laser such merocyanine dyes are preferred whose absorption maximum λmax2 is in the range from 420 bis 550 nm, wherein the wavelength λ½ at which the extinction on the shortwave slope of the absorption maximum of the wavelength λmax2 is half the extinction value at λmax2 and the wavelength λ 1/10 at which the extinction on the shortwave slope of the absorption maximum of the wavelength λmax2 is a tenth of the extinction value at λmax2, are preferably in each case no further than 50 nm away from each other.
The absorption spectra are measured for example in solution.
Suitable merocyanines having the required spectral properties are in particular those in which the change in dipole moment Δμ=|μg-μag|, i.e. the positive difference between the dipole moments in the ground state and in the first excited state, is as small as possible, preferably <5 D, and particularly preferably <2 D. One method of determining such a change in dipole moment Δμ is described for example in F. Würthner et al., Angew. Chem. 1997, 109, 2933 and in the literature cited therein. Low solvatochromism (dioxane/DMF) is also a suitable criterion for selection. Merocyanines are preferred whose solvatochromism Δλ=|λDMF-λdioxane|, i.e. the positive difference between the absorption wavelengths in the solvents dimethylformamide and dioxane is <20 nm, particularly preferably <10 nm and very particularly preferably <5 nm.

[3] = Solubility in coating solvent; format: physicochemical; details: in TFP (2,2,3,3-tetrafluoropropanol)
[4] = UV absorption spectra in solution; format: physicochemical
[5] = molar extinction coefficient at absorption maximum
[6] = = |λDMF − λdioxane| (Tables 1-3)

[Cl][Al]1[n]2c3c4ccccc4c2/N=C2N=C(/N=c4/c5ccccc5/c([n]41)=N/C1=NC(=N\3)/c3ccccc31)c1ccccc1\2 [Example 1, monochloro-aluminium-phthalocyanine]
readout stability [1]: surprisingly good

CCCCN1C(=O)C(C#N)=C(C)/C(=C\C=C2/N(C)c3ccccc3C2(C)C)C1=O [Example 24]
UV (DMF): λmax [2]: 522 nm
UV (dioxane): λmax [2]: 520 nm
Solubility [3]: > 2%
λ½-λ1/10 (longwave slope) [4]: 12 nm

CCCN1C(=O)C(C#N)=C(C)/C(=C\C=C\N(C)c2ccc(OC)cc2)C1=O [Example 25]
UV (DMF): λmax [2]: 477 nm
UV (dioxane): λmax [2]: 482 nm
ε [2, 5]: 73013 L/mol/cm
λ½-λ1/10 (shortwave slope) [2]: 33 nm
Δλ ([2]; solvatochromism |λDMF-λdioxane|): 5 nm
Solubility [3]: > 2%

CC1=C([n+]2ccccc2)C(=O)NC(=O)/C1=C/C=C1\N(C)c2ccccc2C1(C)C [Example 26]
UV (methanol): λmax ([2]; in methanol): 513 nm
ε [2, 5]: 86510 L/mol/cm
λ½-λ1/10 (shortwave slope) [2]: 38 nm

CCCCCCCCCCCCN1C(=O)/C(=C/c2ccc(N(C)C)o2)C(=O)N(C)C1=O [Example 27]
UV (dioxane): λmax [2]: 483 nm
λ½-λ1/10 (shortwave slope) [2]: 32 nm

Cc1cnc(N(C)C)s1 [Example 28]
Δλ [2, 6]: 16 nm
ε ([2]; Tables 1-3): 40990 L/mol/cm
λmax [2]: 470 nm
λ1/2-λ1/10 [2]: 32^3) nm

C=C1N(C)c2ccccc2C1(C)C [Example 56]
Δλ [2, 6]: 5 nm
ε ([2]; Tables 1-3): 46470 L/mol/cm
λmax [2]: 499 nm
λ1/2-λ1/10 [2]: 36^3) nm

C=C1N(C)c2ccc(C)cc2C1(C)C [Example 63]
Δλ [2, 6]: 6 nm
ε ([2]; Tables 1-3): 41530 L/mol/cm
λmax [2]: 503 nm
λ1/2-λ1/10 [2]: 36^3) nm

CN1/C(=C\C=C(\C#N)c2nc3ccccc3s2)C(C)(C)c2ccccc21 [Example 76]
λmax [2]: 462 nm
λ1/2-λ1/10 [2]: 34^3) nm

C=C1N(CCCCN2C(=C)C(C)(C)c3ccccc32)c2ccccc2C1(C)C [Example 77]
λmax [2]: 500 nm

dichloro-silicon-phthalocyanine [Example 2]
readout stability ([1]; SiO2 buffer layer and PSA layer, 100 μm cover): very high
